The record followed here is patent publication US12195558B2, “Targeted delivery system and methods of use therefor” (SANFORD BURNHAM PREBYS MEDICAL DISCOVERY INSTITUTE, priority 2015, dated 2025).

Bridge positions count the residues as written; N and C are the ends. Ends that are not written are not given here.

Data set [1] is described as follows: Aggregation of peptide-coated nanoparticles. The data set is classed as physicochemical. Particulars: peptide on nanoparticles. From the text: The linear TT1 Peptide was selected for further study as a D[KLAKLAK]2 (SEQ ID NO: 42) conjugate on NWs. The CGKRK (SEQ ID NO: 6) and LyP-1 Peptides were included for comparison.
The target of the next data set is NRP-1 (Homo sapiens, UniProt O14786). Description: Fluorescence polarization assay on NRP-1 (control protein). Type of data set: binding. Particulars: NRP-1 as control protein. From the text:
(§1) FIGS. 4A and 4B are plots showing a comparison of the binding of LyP-1 (SEQ ID NO: 7; diamonds) and TT1 (SEQ ID NO: 3; squares) to p32 in a fluorescence polarization assay. […] NRP-1 was used as a control protein.
A general note: In fluorescence polarisation assays a small probe gives low polarisation when free and higher when bound to something large.

For data set [2], the system named is orthotopic 4T1 breast tumors. Description: In vivo homing of intravenous FAM-labeled peptide, 4T1 tumors. Particulars: 4T1 syngeneic tumors, 200 μg FAM-labeled peptide i.v., 2 hours. More on the design: species or system mice. As for the experimental part: (§2) FIGS. 7A and 7B are photographs depicting in vivo homing of an exemplary TT1 peptide. 200 μg of FAM-labeled TT1 (SEQ ID NO: 3) peptide or control peptide in PBS was intravenously injected to mice bearing orthotopic 4T1 (FIG. 7A) or MCF7 (FIG. 7B) breast tumors. The peptides were allowed to circulate for 2 hours and organs were collected and photographed under white (top panels) or UV (bottom panels) light. Arrows point to the tumors of TT1 (SEQ ID NO: 3)-injected mice. Note robust signal (white in black and white versions and green in color versions of the Figures) indicating homing of TT1 (SEQ ID NO: 3) peptide to the tumor in both models. H: heart; Lu: lung; Li: liver; Ki: kidney; Sp: spleen; T: tumor.

Data set [3] deals with MCF10 breast cancer cells. Description: In vitro binding and internalization of FAM-labeled peptide in MCF10 cells. Type of data set: cell-based. Particulars: 100 μM FAM-labeled peptide, 1 hour at 37° C. The procedure:
(§3) FIGS. 6A and 6B are fluorescence micrographs showing internalization of CKRGARSTC (TT1; SEQ ID NO: 3) peptide in breast tumor cells in vitro. 100 μM FAM-labeled peptides were incubated with 4T1 (FIG. 6A) or MCF10 (FIG. 6B) breast cancer cells for 1 hour at 37° C. in DMEM high glucose/10% serum medium. Cells were washed, fixed, stained with anti-FITC antibody, and MITOTRACKER® (Life Technologies) or phalloidin as indicated. Scale bars: 20 μm.
(§4) The ability of the TT1 Peptide to bind to cultured breast tumor cells was tested in vitro.

Data set [4] concerns the target T1, p32 (Homo sapiens, UniProt Q07021).
T1 construct: made in house; host or cells: E. coli Rosetta-gami-2 (Novagen)
T1 sequence (Q07021 74-282): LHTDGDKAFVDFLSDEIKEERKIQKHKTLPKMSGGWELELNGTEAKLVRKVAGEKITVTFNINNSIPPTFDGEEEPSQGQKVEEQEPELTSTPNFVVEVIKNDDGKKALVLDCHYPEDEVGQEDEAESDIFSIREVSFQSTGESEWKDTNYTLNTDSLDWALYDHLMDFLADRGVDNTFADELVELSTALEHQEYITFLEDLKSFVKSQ
Description: Fluorescence polarization assay with synthetic peptides on p32. The data set is classed as binding. Particulars: for binding to p32 in fluorescence polarization assay (in words): synthetic peptides.
Source text: as §1
FIG. 5 is a plot showing that P32-TT1 (CKRGARSTC; SEQ ID NO: 3) and LyP-1 (SEQ ID NO: 7) peptides competed for binding to the P32 protein. […] Squares: p32-TT1; Diamonds: LyP-1; X: RPARPAR peptide (SEQ ID NO: 14).
(§5) An exemplary RGXRS (SEQ ID NO: 4) pentapeptide motif-containing peptide with the sequence CKRGARSTC (SEQ ID NO: 3) was designated as the […] and used it for further studies. Mutating any amino acid in the consensus motif of TT1 abolished the phage binding to p32. This new peptide conferred about 15-fold stronger phage binding to immobilized p32 protein than did the canonical LyP-1 peptide.

Data set [5] concerns orthotopic MCF7 breast tumors. Description: In vivo homing of intravenous FAM-labeled peptide, MCF7 tumors. More on the design: species or system mice. Particulars: 200 μg FAM-labeled peptide i.v., 2 hours. The procedure: as §2
In data set [6] the target is T1, p32. Kind of data set: Binding of peptide-displaying T7 phage to p32-coated magnetic beads. Particulars: phage-displayed peptide; relative to LyP-1. As for the experimental part:
FIG. 10 is a bar graph showing that the p32 binding of the RGXR(S/T) motif (SEQ ID NOs: 4 and 5) in the exemplary TT1 peptide (SEQ ID NO: 3) was not dependent on the cyclic structure and compatible with flanking sequences. Phage clones displaying the indicated peptides were incubated in p32-coated magnetic microbeads. After washing to remove non-bound phage, specifically bound phage were quantified.
Milligram quantities of recombinant His-tagged p32 protein were expressed in E. coli and coated onto Ni-NTA magnetic beads, and biopanning was performed using two T7 bacteriophage peptide libraries (cyclic Cx7C and linear X7 library).
(§6) Variant peptide-encoding genomic DNA of phage was sequenced and analyzed for the presence of consensus motifs. After two rounds of selection, both linear and cyclic libraries converged to contain an RGXRS (SEQ ID NO: 4) pentapeptide motif (see FIG. 2B). The binding of RGXRS (SEQ ID NO: 4)-displaying phage to p32 was specific, as these phage bound to magnetic beads coated with p32 protein and not to beads coated with ligand-binding b1b2 domain of the cell and tissue penetration receptor NRP-1 or BSA (see FIG. 3).
as §5

The subject of a further data set is MDA-MB-231 xenografts. Kind of data set: In vivo homing of intravenous peptide, MDA-MB-231 xenografts. More on the design: species or system mice. Particulars: i.v.
A further data set relates to 4T1 breast cancer cells. Description: In vitro binding and internalization of FAM-labeled peptide in 4T1 cells. Particulars: 100 μM FAM-labeled peptide, 1 hour at 37° C. Type of data set: cell-based. The procedure:
as §3, §4

The test system of a further data set is atherosclerotic plaques. Kind of data set: Homing to atherosclerotic plaques in ApoE null mice on high-fat diet. The data set is classed as in vivo. Particulars: for homing to and penetration into plaque tissue: 100 mg FAM labeled peptide i.v., one hour. The procedure:
ApoE null mice that had been kept on a high-fat diet were intravenously injected with […] of the FAM labeled peptides. One hour later, the mice were perfused through the heart under anesthesia, and tissues were collected. The panels show accumulation of FAM labeled peptides visualized with UV excitation. The center two and right two panels show atherosclerotic aortas that were sectioned at the aortic root level and examined by confocal microscopy.

The target of another data set is T2, NRP-1 b1b2 domain (Homo sapiens, UniProt O14786).
T2 sequence (O14786 273-586 limits assumed): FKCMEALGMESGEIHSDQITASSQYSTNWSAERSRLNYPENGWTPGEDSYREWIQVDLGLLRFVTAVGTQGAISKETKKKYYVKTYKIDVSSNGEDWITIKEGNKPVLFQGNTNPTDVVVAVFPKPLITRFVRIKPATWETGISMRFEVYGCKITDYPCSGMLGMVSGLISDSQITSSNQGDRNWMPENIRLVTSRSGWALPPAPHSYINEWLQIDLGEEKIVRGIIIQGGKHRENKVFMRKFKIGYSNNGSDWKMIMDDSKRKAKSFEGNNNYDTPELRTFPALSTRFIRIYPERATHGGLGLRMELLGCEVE
Kind of data set: Binding of peptide-displaying T7 phage to NRP-1 b1b2-coated magnetic beads. Particulars: 30 minutes at 37° C., p32 versus NRP-1 b1b2 beads. The procedure: FIG. 9 is a bar graph showing proteolytic switching of binding specificity of an exemplary TT1 peptide (SEQ ID NO: 3). T7 phage displaying an exemplary TT1 peptide (SEQ ID NO: 3) were exposed to increasing concentrations of crystalline trypsin and incubated for 30 minutes at 37° C. After treatment, phage were incubated with magnetic beads coated with either p32 (decending hatching left to right) or NRP-1 b1b2 (ascending hatching left to right) protein, followed by washes to remove unbound phage and quantitation of specifically bound phage.
as §6
The p32 binding motif with consensus sequence RGXRS (SEQ ID NO: 4; i.e., the RGXRS (SEQ ID NO: 4) pentapeptide motif) contains a cryptic RGXR CendR element that can be unmasked by a tryptic cleavage. […]

NRP-1, sequence (O14786 22-923): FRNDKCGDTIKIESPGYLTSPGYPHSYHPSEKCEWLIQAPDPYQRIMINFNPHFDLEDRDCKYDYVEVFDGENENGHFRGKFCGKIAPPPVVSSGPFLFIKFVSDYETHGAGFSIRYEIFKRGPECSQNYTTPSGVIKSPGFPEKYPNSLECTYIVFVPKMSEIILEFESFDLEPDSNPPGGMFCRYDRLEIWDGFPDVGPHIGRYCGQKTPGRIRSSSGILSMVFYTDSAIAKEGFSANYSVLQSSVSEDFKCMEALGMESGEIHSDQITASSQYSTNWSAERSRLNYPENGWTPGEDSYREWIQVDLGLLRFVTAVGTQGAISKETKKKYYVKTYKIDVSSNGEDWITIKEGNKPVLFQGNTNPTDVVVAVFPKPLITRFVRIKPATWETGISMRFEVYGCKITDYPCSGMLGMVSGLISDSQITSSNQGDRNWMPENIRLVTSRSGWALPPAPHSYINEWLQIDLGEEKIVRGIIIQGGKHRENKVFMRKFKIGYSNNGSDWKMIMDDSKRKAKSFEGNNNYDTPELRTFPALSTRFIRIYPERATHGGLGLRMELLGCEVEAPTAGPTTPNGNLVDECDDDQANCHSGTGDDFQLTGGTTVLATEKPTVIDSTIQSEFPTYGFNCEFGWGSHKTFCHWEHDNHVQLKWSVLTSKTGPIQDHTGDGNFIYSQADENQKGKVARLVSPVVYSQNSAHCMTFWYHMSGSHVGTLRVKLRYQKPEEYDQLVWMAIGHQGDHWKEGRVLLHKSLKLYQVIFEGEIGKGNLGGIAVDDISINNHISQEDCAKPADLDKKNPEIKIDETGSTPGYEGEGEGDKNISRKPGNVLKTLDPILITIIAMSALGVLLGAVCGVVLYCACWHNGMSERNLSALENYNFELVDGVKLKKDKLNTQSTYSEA

Turning to “CKRGARSTC (disulfide 1-9 (inferred)) [TT1 Peptide]”, the “aggregation of the peptide-coated nanoparticles” value in [1] is reported as “tended to cause aggregation of the peptide-coated nanoparticles”. For the same sequence, the “binding to NRP-1 in fluorescence polarization assay (in words)” value in the data set with NRP-1 is reported as “only background binding”. Further, the tumor homing entry in data set [2] is “homed to breast tumors”; in [2] (listed as TT1) it was “robust signal”; in [5] it was “homed to breast tumors”; in [5] (listed as TT1), “robust signal”; in the data set with MDA-MB-231 xenografts it was “homed to breast tumors”. Further, the “cell surface binding and internalization” value is “rapidly bound to the surface of 4T1 and MCF10 breast cancer cells and was internalized over time” in [3]; “rapidly bound to the surface of 4T1 and MCF10 breast cancer cells and was internalized over time” in the data set with 4T1 breast cancer cells. Moreover, the “inhibition of binding of labeled TT1 to P32 by unlabeled peptide” value with p32 [4] (competition, fluorescence polarization) is reported as “could be inhibited”. Further, the “binding site on p32” value with p32 [4] (fluorescence polarization) is “shared the binding site on p32 with the LyP-1 peptide”. For the same sequence, the “affinity for p32 (in words)” value with p32 [4] (method not stated at the place) is reported as “high affinity for p32”. The “binding to p32 in fluorescence polarization assay (in words)” value is reported as “specific” with p32 [4] and “bound to p32 with a higher affinity than LyP-1” in the data set with p32 [4] (listed as TT1). In the data set with p32 [6], the “phage binding to immobilized p32 protein, fold stronger than the canonical LyP-1 peptide” value is listed as “about 15 fold”. The “homing to and penetration into plaque tissue” value in the data set on atherosclerotic plaques is “homed to and penetrated atherosclerotic lesions”; in the data set with atherosclerotic plaques (listed as TT1) it was “homed to and penetrated into plaque tissue as well as or better than LyP-1”. In addition, the “plaque homing compared with LyP-1 peptide” value in the data set on atherosclerotic plaques (ApoE null mice on high-fat diet) is listed as “more robust than seen with the LyP-1 peptide”. Besides, the “binding specificity after exposure to trypsin” value with NRP-1 b1b2 domain is “affinity switching from p32 to NRP-1 b1b2”.
